Data as given in patent US20260116928A1, “COMPOSITIONS AND PARTICLES FOR PAYLOAD DELIVERY” (Thornhill Therapeutics, Inc., priority 2019, published 2026).

Assay: Glucose challenge model
Format: in vivo, male CD1 mice
Conditions: mice, IP glucose challenge; 10 μg IP injection
Text: The glucose challenge model used to test SEQ ID NO: 70-Exenatide was designed to examine the capacity of a GLP-1-like activity to enhance the rate of recovery from a glucose excursion.
The male CD1 mice used in the glucose challenge test were 9-16 weeks of age. To minimize stress due to handling, animals were acclimatized to the environment, blood sampling, and dosing procedures for 1 week prior to the start of experiments, as plasma glucose can be responsive to handling stress. Mice were fasted for 18 h prior to study. […] Blood samples were taken at t=0, 15, 30, 45, 60 min; 2, 3, and 4 hr. Blood glucose measurements were made using 5 μL blood sample taken from the tail with a commercial glucometer that was calibrated with glucose standards prior to the start of the study.

Substance: Exenatide (1-40)-Gly
- time at which correction of the blood glucose excursion began: 15 min
- time by which the correction profile was completed: ≤ 120 min
